According to patent publication US5091367A, “Analogs of gonadoliberin with improved solubility, methods for their preparation, agents containing them and their use” (Hoechst Aktiengesellschaft, priority 1986, dated 1992):
Values after ≈ are worked out from the molar mass of the structure shown.

What was measured:
rat super-ovulation = test: biological activity in rat super-ovulation; format: in vivo
[1] = solubility in a neutral buffer used for nasal application; details: well compatible neutral buffer as used for nasal application of protirelin
Serum testosterone = test: serum testosterone after Gn-RH antagonist (Table 2); format: in vivo; details: untreated control 3.63 ± 0.59
Text: The Gn-RH antagonists according to the invention have an inhibitory effect on the formation of lutropin and follitropin and, as a result, also on the synthesis of testosterone and estrogen (see Table 2). They can be employed as high-dose Gn-RH […] in gonadotropin- and steroid-dependent diseases.

Row | Compound | ED20-50 Super-ovul. (rat super-ovulation) | Solubility in neutral nasal buffer [1] | Serum testosterone (Serum testosterone)
1 | Pgl-His-Trp-Ser-Tyr-D-Trp-Ser(α-L-Rha)-Arg-Pro-NH-C2 H5 | > 24 ng/rat | 1400 µg/mL | 
2 | Ac-D-Nal-p-Cl-D-Phe-D-Trp-Ser-Tyr-D-Ser(α-L-Rha)-Leu-Arg-Pro-Azagly-N H2 |  |  | 2.30 ± 0.47 ng/mL
3 | Ac-D-Nal-p-Cl-D-Phe-D-Trp-Ser-His-D-Ser(α-L-Rha)-Leu-Arg-Pro-Azagly-N H2 |  |  | 1.34 ± 0.17 ng/mL
4 | Pgl-His-Trp-Ser-Tyr-D-Trp-Ser(β-Lac)-Arg-Pro-NH-C2 H5 | < 48 ng/rat | 167000 µg/mL | 
5 | Pgl-His-Trp-Ser-Tyr-D-Ser(L-Ara)-Leu-Arg-Pro-NH-C2 H5 | 12 ng/rat | 125000 µg/mL | 
6 | CCNC(=O)[C@@H]1CCCN1C(=O)[C@H](CCCNC(=N)N)NC(=O)[C@H](CO[C@@H]1O[C@H](CO)[C@@H](O)[C@H](O)[C@H]1O)NC(=O)[C@@H](Cc1c[nH]c2ccccc12)NC(=O)[C@H](Cc1ccc(O)cc1)NC(=O)[C@H](CO)NC(=O)[C@H](Cc1c[nH]c2ccccc12)NC(=O)[C@H](Cc1c[nH]cn1)NC(=O)[C@@H]1CCC(=O)N1 [Pgl-His-Trp-Ser-Tyr-D-Trp-Ser(β-D-Glc)-Arg-Pro-NH-C2 H5] | 6 ng/rat | 2500 µg/mL (≈ 1760 µM) | 
7 | CCNC(=O)[C@@H]1CCCN1C(=O)[C@H](CCCNC(=N)N)NC(=O)[C@H](CC(C)C)NC(=O)[C@@H](CO[C@H]1O[C@@H](C)[C@@H](O)[C@@H](O)[C@@H]1O)NC(=O)[C@H](Cc1ccc(O)cc1)NC(=O)[C@H](CO)NC(=O)[C@H](Cc1c[nH]c2ccccc12)NC(=O)[C@H](Cc1c[nH]cn1)NC(=O)[C@@H]1CCC(=O)N1 [Pgl-His-Trp-Ser-Tyr-D-Ser(β-L-Fuc)-Leu-Arg-Pro-NH-C2 H5] | 6 ng/rat | 167000 µg/mL (≈ 126000 µM) | 
8 | Pgl-His-Trp-Ser-Tyr-D-Trp-Ser(L-Ara)-Arg-Pro-NH-C2 H5 | 48 ng/rat | 1250 µg/mL | 
9 | CCNC(=O)[C@@H]1CCCN1C(=O)[C@H](CCCNC(=N)N)NC(=O)[C@H](CO[C@H]1O[C@@H](C)[C@@H](O)[C@@H](O)[C@@H]1O)NC(=O)[C@@H](Cc1c[nH]c2ccccc12)NC(=O)[C@H](Cc1ccc(O)cc1)NC(=O)[C@H](CO)NC(=O)[C@H](Cc1c[nH]c2ccccc12)NC(=O)[C@H](Cc1c[nH]cn1)NC(=O)[C@@H]1CCC(=O)N1 [Pgl-His-Trp-Ser-Tyr-D-Trp-Ser(β-L-Fuc)-Arg-Pro-NH-C2 H5] | > 200 ng/rat | 2500 µg/mL (≈ 1780 µM) | 
10 | Pgl-His-Trp-Ser-Tyr-D-Trp-Ser(Ac2 -α-D-Man)-Arg-Pro-NH-C2 H5 | > 24 ng/rat | 10000 µg/mL | 
11 | Pgl-His-Trp-Ser-Tyr-D-Ser(Ac-β-L-Fuc)-Leu-Arg-Pro-NH-C2 H5 | 6 ng/rat | 10000 µg/mL | 
12 | Ac-D-Nal-p-Cl-D-Phe-D-Trp-Ser-Arg-D-Ser(α-L-Rha)-Leu Arg-Pro-Azagly-NH2 |  |  | 2.27 ± 0.28 ng/mL
13 | Pgl-His-Trp-Ser-Tyr-D-Trp-Ser(Ac-β-L-Fuc)-Arg-Pro-NH-C2 H5 | 200 ng/rat | 10000 µg/mL | 
14 | CCNC(=O)[C@@H]1CCCN1C(=O)[C@H](CCCNC(=N)N)NC(=O)[C@H](CC(C)C)NC(=O)[C@@H](CO[C@H]1O[C@H](CO)[C@@H](O)[C@H](O)[C@@H]1O)NC(=O)[C@H](Cc1ccc(O)cc1)NC(=O)[C@H](CO)NC(=O)[C@H](Cc1c[nH]c2ccccc12)NC(=O)[C@H](Cc1c[nH]cn1)NC(=O)[C@@H]1CCC(=O)N1 [Pgl-His-Trp-Ser-Tyr-D-Ser(α-D-Man)-Leu-Arg-Pro-NH-C2 H5] | 6 ng/rat | 62500 µg/mL (≈ 46500 µM) | 
15 | Pgl-His-Trp-Ser-Tyr-D-Ser(β-D-Xyl)-Leu-Arg-Pro-NH-C2 H5 | 6 ng/rat | 50000 µg/mL | 
16 | Pgl-His-Trp-Ser-Tyr-D-Trp-Ser(D-Rib)-Arg-Pro-NH-C2 H5 | < 24 ng/rat | 25000 µg/mL | 
17 | Pgl-His-Trp-Ser-Tyr-D-Trp-Ser(Ac-α-D-Man)-Arg-Pro-NH-C2 H5 | > 24 ng/rat | 10000 µg/mL | 
18 | Pgl-His-Trp-Ser-Tyr-D-Trp-Ser(Ac-α-L-Rha)-Arg-Pro-NH-C2 H5 | > 24 ng/rat | 500 µg/mL | 
19 | Pgl-His-Trp-Ser-Tyr-D-Trp-Ser(Ac-β-D-Glc)-Arg-Pro-NH-C2 H5 | 5 ng/rat | 2500 µg/mL | 

Row | Compound | ED20-50 Super-ovul. (rat super-ovulation) | Solubility in neutral nasal buffer [1] | Serum testosterone (Serum testosterone)
20 | Pgl-His-Trp-Ser-Tyr-D-Ser(β-D-Glc-NAc)-Leu-Arg-Pro-NH-C2 H5 | < 6 ng/rat | 125000 µg/mL | 
21 | CCNC(=O)[C@@H]1CCCN1C(=O)[C@H](CCCNC(=N)N)NC(=O)[C@H](CO[C@H]1O[C@H](CO)[C@@H](O)[C@H](O)[C@@H]1O)NC(=O)[C@@H](Cc1c[nH]c2ccccc12)NC(=O)[C@H](Cc1ccc(O)cc1)NC(=O)[C@H](CO)NC(=O)[C@H](Cc1c[nH]c2ccccc12)NC(=O)[C@H](Cc1c[nH]cn1)NC(=O)[C@@H]1CCC(=O)N1 [Pgl-His-Trp-Ser-Tyr-D-Trp-Ser(α-D-Man)-Arg-Pro-NH-C2 H5] | > 24 ng/rat | 3300 µg/mL (≈ 2330 µM) | 
22 | Pgl-His-Trp-Ser-Tyr-D-Trp-Ser(β-L-Xyl)-Arg-Pro-NH-C2 H5 | 48 ng/rat | 1100 µg/mL | 
23 | Pgl-His-Trp-Ser-Tyr-D-Trp-Ser(Ac-β-D-Xyl)-Arg-Pro-NH-C2 H5 | 6 ng/rat | 2500 µg/mL | 
24 | CCNC(=O)[C@@H]1CCCN1C(=O)[C@H](CCCNC(=N)N)NC(=O)[C@H](CC(C)C)NC(=O)[C@@H](COC(C)(C)C)NC(=O)[C@H](Cc1ccc(O)cc1)NC(=O)[C@H](CO)NC(=O)[C@H](Cc1c[nH]c2ccccc12)NC(=O)[C@H](Cc1cnc[nH]1)NC(=O)[C@@H]1CCC(=O)N1 [Buserelin, Pgl--His--Trp--Ser--Tyr--D-Ser(tBu)--Leu--Arg--Pro--NH--C2 H5, reference compound] | 3 ng/rat | 1250 µg/mL (≈ 1010 µM) | 
25 | CCNC(=O)[C@@H]1CCCN1C(=O)[C@H](CCCNC(=N)N)NC(=O)[C@H](CC(C)C)NC(=O)[C@@H](CO[C@@H]1O[C@H](CO)[C@@H](O)[C@H](O)[C@H]1O)NC(=O)[C@H](Cc1ccc(O)cc1)NC(=O)[C@H](CO)NC(=O)[C@H](Cc1c[nH]c2ccccc12)NC(=O)[C@H](Cc1c[nH]cn1)NC(=O)[C@@H]1CCC(=O)N1 [Pgl-His-Trp-Ser-Tyr-D-Ser(β-D-Glc)-Leu-Arg-Pro-NH-C2 H5] | 12 ng/rat | 125000 µg/mL (≈ 92900 µM) | 
26 | Pgl-His-Trp-Ser-Tyr-D-Trp-Ser(D-Ara)-Arg-Pro-NH-C2 H5 | 24 ng/rat | 5000 µg/mL | 
27 | Pgl-His-Trp-Ser-Tyr-D-Ser(β-Lac)-Leu-Arg-Pro-NH-C2 H5 | 12 ng/rat | 167000 µg/mL | 
28 | CCNC(=O)[C@@H]1CCCN1C(=O)[C@H](CCCNC(=N)N)NC(=O)[C@H](CC(C)C)NC(=O)[C@@H](Cc1c[nH]c2ccccc12)NC(=O)[C@H](Cc1ccc(O)cc1)NC(=O)[C@H](CO)NC(=O)[C@H](Cc1c[nH]c2ccccc12)NC(=O)[C@H](Cc1c[nH]cn1)NC(=O)[C@@H]1CCC(=O)N1 [LH--RH--T, Pgl--His--Trp--Ser--Tyr--D-Trp--Leu--Arg--Pro--NH--C2 H5, reference compound] | 3 ng/rat |  | 
29 | Pgl-His-Trp-Ser-Tyr-D-Ser(D-Ara)-Leu-Arg-Pro-NH-C2 H5 | < 24 ng/rat | 125000 µg/mL | 
30 | Pgl-His-Trp-Ser-Tyr-D-Trp-Ser(β-D-Xyl)-Arg-Pro-NH-C2 H5 | 6 ng/rat | 1700 µg/mL | 
31 | Pgl-His-Trp-Ser-Tyr-D-Ser(β-D-Gal)-Leu-Arg-Pro-NH-C2 H5 | 12 ng/rat | 125000 µg/mL | 
32 | Pgl-His-Trp-Ser-Tyr-D-Trp-Ser(Ac2 -β-L-Fuc)-Arg-Pro-NH-C2 H5 | 200 ng/rat | 3300 µg/mL | 
33 | Pgl-His-Trp-Ser-Tyr-D-Ser(D-Rib)-Leu-Arg-Pro-NH-C2 H5 | < 6 ng/rat | 10000 µg/mL | 
34 | Pgl-His-Trp-Ser-Tyr-D-Trp-Ser(β-D-Glc-NAc)-Arg-Pro-NH-C2 H5 | > 24 ng/rat | 125000 µg/mL | 
35 | Pgl-His-Trp-Ser-Tyr-D-Ser(Ac-α-L-Rha)-Leu-Arg-Pro-NH-C2 H5 | 3 ng/rat | 50000 µg/mL | 
36 | Pgl-His-Trp-Ser-Tyr-D-Ser(β-L-Xyl)-Leu-Arg-Pro-NH-C2 H5 | 6 ng/rat | 10000 µg/mL | 
37 | Pgl--His--Trp--Ser--Tyr--D-Trp--Ser(β-D-Gal)--Arg--Pro--NH--C2 H5 |  | 10000 µg/mL | 
38 | Pgl-His-Trp-Ser-Tyr-D-Ser(α-L-Rha)-Leu-Arg-Pro-NH-C2 H5 | 3 ng/rat | 167000 µg/mL | 
